What was measured:
[1] = target: mitochondrial succinate dehydrogenase (SDH) (Zymoseptoria tritici, UniProt F9X9V6+F9XH52+O42772, N33T/N34T/V106L); assay: biochemical; conditions: IC50
[2] = target: mitochondrial succinate dehydrogenase (SDH) (Zymoseptoria tritici, UniProt F9X9V6+F9XH52+O42772, N33T/N34T); assay: biochemical; conditions: IC50

## Cn1cc(C(=O)Nc2ccc(F)cc2-c2ccc(Cl)c(Cl)c2)c(C(F)F)n1 [Bixafen, bixafen]
[1]
  IC50: 44 ± 11 nM
[2]
  IC50: 31 ± 17 nM

## O=C(NCCc1ncc(C(F)(F)F)cc1Cl)c1ccccc1C(F)(F)F [Fluopyram, fluopyram]
[1]
  IC50: 12400 ± 1320 nM
[2]
  IC50: 134 ± 67 nM

## Cc1cc(OC(C)C)ccc1C(=O)C(C)(C)NC(=O)c1sccc1C [Isofetamid, N‐[1,1‐dimethyl‐2‐(4‐isopropoxy‐o‐tolyl)‐2‐oxoethyl]‐3‐methylthiophene‐2‐carboxamide]
[1]
  IC50: > 32000 nM
[2]
  IC50: 46 ± 9 nM
